Source: patent publication US11198680B2 (BioAxone BioSciences, Inc., priority 2016, dated 2021)

Columns and labels:
ROCK1 [1] = biological target: ROCK1 (Homo sapiens (Human), UniProt Q13464); assay: biochemical
Experimental: The assay is performed by combining the DNA-tagged kinase, immobilized ligand, and a test compound. The ability of the test compound to compete with the immobilized ligand is measured via quantitative PCR of the DNA tag.
The highest concentration tested was 30 μM.

[2] = SAFETYscan off-target panel, all targets; settings: 10 μM; except 5-HT2b-receptor
Experimental: The SAFETYscan™ (DiscoverX) is used for rapid testing of any compound against a panel that includes well-known membrane proteins of importance for drug development such as selected voltage-gated ion channels, G-protein coupled receptors, neurotransmitter transporters and also a selected group of purified cellular enzymes.
Cell lines engineered to express individual transmembrane receptor proteins such as the muscarinic acetylcholine receptor or the dopamine D1 receptor were grown in culture in their standard growth medium until reaching confluence. […] The experiment also contains controls for comparison including known agonists and antagonists of the targeted membrane proteins.
For assays using purified enzymes, an enzyme assay is set up in standard reaction buffer and necessary indicators for activity such as co-factors, buffers and synthetic substrates. […] As positive controls, a binding assay using Rho kinase (ROCK) was included in the panel. Other targets in the panel included G-protein coupled receptors, nuclear hormone receptors, intracellular non-kinase enzymes, ion channels, and neurotransmitter transporters. The specific targets were chosen because of their previous known associations with being the source of problematic off-target effects in cellular or whole animal studies.

mouse hepatocytes = assay: Metabolism in cultured hepatocytes; type: in vitro ADME
[3] = tested on: ROCK2 activation (phospho-cofilin); assay: Transient MCAO stroke model, phospho-cofilin Western blot left versus right brain; type: in vivo, mouse
Experimental: The murine intraluminal monofilament model of middle cerebral artery occlusion (MCAO) is used on mice in this study. MCAO involves the insertion of a surgical filament into the external carotid artery and threading it forward into the internal carotid artery until the tip occludes the origin of the MCA, resulting in a cessation of blood flow and subsequent brain infarction in the MCA territory. The technique is used herein to model transient occlusion. If the filament is removed after 1 h, reperfusion is achieved (transient MCAO). This study determines the most efficacious dose and route of administration that reduce Rho-kinase 2 (ROCK2) activation following transient MCAO-induced stroke in mice. The pharmacodynamic response is also determined in this study.
Twenty-eight 9-wk old C57BL/6 (Charles River Laboratories) were used in this study. For surgery, the mouse was placed in a supine position on an infrared heating pad. The fur over the ventral neck was shaved and the skin was disinfected with 70% ethanol and povidone iodine. Under a stereo dissecting microscope, a 1 cm midline incision was made on the neck and retractors were used to expose the left common carotid artery (CCA), the external carotid artery (ECA) and the internal carotid artery (ICA). The arteries were carefully dissected to free them from surrounding nerves and fascia. The ECA was dissected further distally and two 8-0 silk sutures are tied around the ECA stump and a vascular clamp was applied at the bifurcation of the CCA into the ECA and ICA. A small incision was made at the end of ECA stump with Vannas-style spring scissors. A blunt 5-0 monofilament suture (Doccol) was inserted into the incision and advanced from the lumen of the ECA into the ICA for a distance of 9-10 mm beyond the bifurcation of CCA to occlude the origin of MCA. For the mouse model, a distance of 9 mm-11 mm rostral to the CCA bifurcation is inserted. After 60 min., the monofilament was removed. The incision was sutured with 4.0 prolene sutures. […] The mouse is allowed to recover on a heating pad until thermoregulation is re-established.
For Western blot analysis, mice were anesthetized using isoflurane and decapitated. […]
20 μL protease inhibitor (Halt, Protease, Fisher Scientific, Pittsburgh, Pa.) and 10 μL phosphatase inhibitor (Fisher Scientific) were added to 1 mL RIPA buffer (Santa Cruz Biotechnology, Dallas, Tex.). […] The protein concentration of each sample was determined using the DC Protein Assay Kit and following the manufacturer's instructions.
The left and right hemispheres of each brain were homogenized and prepared for Western blotting, and the signal of phospho-cofilin was measured quantitatively by densitometry compared to an internal standard, cyclophilin. […]

ROCK2 = ROCK2 (Homo sapiens (Human), UniProt O75116); assay: ROCK2 inhibition curves, MYPT1 substrate plate assay; type: biochemical; settings: purified ROCK2, MYPT1 substrate
ROCK2, sequence (O75116 whole entry, species assumed): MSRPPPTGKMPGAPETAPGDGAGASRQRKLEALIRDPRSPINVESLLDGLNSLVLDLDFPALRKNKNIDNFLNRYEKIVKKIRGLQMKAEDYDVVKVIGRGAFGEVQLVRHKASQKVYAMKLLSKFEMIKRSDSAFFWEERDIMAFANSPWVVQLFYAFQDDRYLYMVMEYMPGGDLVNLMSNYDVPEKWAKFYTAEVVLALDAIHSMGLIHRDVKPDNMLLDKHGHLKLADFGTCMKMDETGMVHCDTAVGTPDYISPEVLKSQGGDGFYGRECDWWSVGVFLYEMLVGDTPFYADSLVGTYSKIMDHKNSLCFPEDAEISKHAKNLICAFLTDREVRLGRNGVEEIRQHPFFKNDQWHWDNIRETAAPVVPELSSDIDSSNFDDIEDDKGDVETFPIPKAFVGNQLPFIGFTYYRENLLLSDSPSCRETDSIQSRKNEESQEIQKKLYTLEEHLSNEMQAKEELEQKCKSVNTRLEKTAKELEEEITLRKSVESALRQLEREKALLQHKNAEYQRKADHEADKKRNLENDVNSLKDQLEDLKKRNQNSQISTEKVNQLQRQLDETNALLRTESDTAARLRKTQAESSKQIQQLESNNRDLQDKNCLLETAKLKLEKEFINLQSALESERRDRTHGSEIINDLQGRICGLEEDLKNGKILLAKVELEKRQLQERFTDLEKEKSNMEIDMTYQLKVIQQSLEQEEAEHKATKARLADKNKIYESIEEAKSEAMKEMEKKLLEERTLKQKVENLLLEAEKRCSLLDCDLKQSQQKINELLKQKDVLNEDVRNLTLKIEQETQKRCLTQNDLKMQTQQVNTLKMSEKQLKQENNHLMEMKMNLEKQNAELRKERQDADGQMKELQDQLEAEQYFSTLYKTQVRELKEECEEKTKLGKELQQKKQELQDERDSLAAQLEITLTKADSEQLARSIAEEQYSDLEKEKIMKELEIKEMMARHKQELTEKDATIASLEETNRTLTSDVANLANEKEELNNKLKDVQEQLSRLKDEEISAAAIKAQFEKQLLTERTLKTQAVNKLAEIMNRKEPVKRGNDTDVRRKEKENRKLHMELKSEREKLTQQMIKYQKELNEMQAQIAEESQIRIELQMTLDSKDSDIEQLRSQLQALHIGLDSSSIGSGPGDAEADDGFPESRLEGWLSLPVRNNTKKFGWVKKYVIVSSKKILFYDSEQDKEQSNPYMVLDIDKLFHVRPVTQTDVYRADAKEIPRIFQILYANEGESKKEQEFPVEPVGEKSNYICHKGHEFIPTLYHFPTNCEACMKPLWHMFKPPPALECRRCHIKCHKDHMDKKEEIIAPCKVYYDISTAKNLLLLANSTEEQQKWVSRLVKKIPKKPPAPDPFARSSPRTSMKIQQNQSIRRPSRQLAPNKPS
Experimental: Each compound was dissolved at 100 mM in DMSO. This compound-DMSO solution is diluted to 500 μM in dH2O. Serial dilutions were prepared so that a semi-log range of compound is present after being diluted 5× in other assay reagents, from 100 μM through 1 nM.
10 μL of each concentration of each compound was added in duplicate to individual wells of a 96-well Maxisorp plate (ThermoFisher) pre-coated with the ROCK2 substrate MYPT1 (ThermoFisher). dH2O is added as a negative control.
Using a multichannel pipettor, […] of final volume per well was made by the addition of the following of each solution to begin the reaction: 10 μL 20 mM MOPS pH 7.2, 25 mM β-glycerophosphate, 5 mM EGTA, 1 mM Na3VO4, and 1 mM DTT, 10 μL 50 μM ATP, 10 μL 75 mM MgCl2, and 10 μL 1 mU/μL ROCK2 solution. […]
100 μL TMB/E solution was added to each well with a multichannel pipette. Upon sufficient color development, the reaction was stopped using 100 μL stop solution and absorbance read using a Wallac Victor2 plate reader at 450 nm.
Because absorbance values proportional to ROCK2 activity, plotting absorbance at 450 nm versus final concentration of metabolite and parent compound provides inhibition curves. Relative inhibitory profiles were determined through 4PL analysis of these curves. Variations in calculated IC50 are common before assay optimization due to variations in experimental variables.

[4] = tested on: Rho/ROCK activity (MLC2 diphosphorylation) in HUVECs; assay: LPA-treated HUVECs, pMLC2 T18/S19 immunoblot; type: cell-based, human
Experimental: Cell lines were exposed to each dose for 1 hr, and then are stimulated with 20 μM LPA for either 5 min or 1 hr as described below. All experiments were conducted in triplicate and analyzed by two independent assessors blinded to both cell line and treatment.
Cells were subjected to biochemical analysis of diphosphorylated MLC2 (Threonine 18/Serine 19 phosphorylation sites) and cofilin (Serine 9 phosphorylation site) using SDS-PAGE and immunoblotting. Cells were plated in 24-well tissue culture plates coated with 70 μg/ml rat collagen-1 (Corning; Corning, N.Y.), and grown for 2 d to 3 d at 37° C./5% CO2 until confluency. […] Then medium was exchanged for Medium 200 supplemented with 0.1% HSA (Sigma-Aldrich) and 20 μM of LPA (Santa Cruz Biotech; Santa Cruz, Calif.) and incubated for 5 min. After LPA stimulation, proteins were extracted from cells by lysis with RIPA buffer supplemented with HALT complete protease/phosphatase inhibitor (ThermoFisher, Waltham, Mass.), reduced and denatured using Laemmli sample buffer (BioRad, Hercules, Calif.)/beta-mercaptoethanol and subjected to SDS-PAGE.
Denatured samples were electrophoresed in reducing 10% Bis-Tris-gels polyacrylamide gels (Novex; Thermo-Fisher, Waltham, Mass.) and were transferred onto 0.25 μm PVDF membranes (EMD Millipore, Billerica, Mass.). Membranes are probed using amti-pMLC2 T18/S19 (1:500; Cell Signaling, Danvers, Mass.) or anti-pCofilin S9 (1:500, Cell Signaling, Danvers, Mass.) and anti-glyceraldehyde 3-phosphate dehydrogenase loading control (GAPDH, 1:10000; Abcam). Protein levels were detected using chemiluminescence substrate (Super Signal West, ThermoFisher, Waltham, Mass.) and images captured using a FluoroChem SP Imaging System.

ROCK1 [5] = settings: percent of negative control binding; second row printed ROCK1, text says ROCK1 and ROCK2
Description: The KINOMEscan™ screening platform (DiscoverX, Fremont, Calif.) employs a novel active site-directed competition binding assay to quantitatively measure interactions between test compounds and more than 450 human kinases and disease relevant mutant variants. […] Compounds that bind the kinase active site and directly (sterically) or indirectly (allosterically) prevent kinase binding to the immobilized ligand, will reduce the amount of kinase captured on the solid support. […] Screening “hits” are identified by measuring the amount of kinase captured in test versus control samples by using a quantitative, precise and ultra-sensitive qPCR method that detects the associated DNA label.
Kinase-tagged T7 phage strains were grown in parallel in 24-well blocks in an E. coli host derived from the BL21 strain. E. coli were grown to log-phase and infected with T7 phage from a frozen stock (multiplicity of infection=0.4) and incubated with shaking at 32° C. until lysis (90-150 minutes). The lysates were centrifuged (6,000×g) and filtered (0.2 μm) to remove cell debris. The remaining kinases were produced in HEK-293 cells and subsequently tagged with DNA for qPCR detection (Wein, et al. (2016) Nat. Comm. 7). […] Test compounds were prepared as 40× stocks in 100% DMSO and directly diluted into the assay. All reactions were performed in polypropylene 384-well plates in a final volume of 0.02 ml.

ROCK1 (Homo sapiens (Human), UniProt Q13464), sequence (Q13464 2-1354 limits assumed): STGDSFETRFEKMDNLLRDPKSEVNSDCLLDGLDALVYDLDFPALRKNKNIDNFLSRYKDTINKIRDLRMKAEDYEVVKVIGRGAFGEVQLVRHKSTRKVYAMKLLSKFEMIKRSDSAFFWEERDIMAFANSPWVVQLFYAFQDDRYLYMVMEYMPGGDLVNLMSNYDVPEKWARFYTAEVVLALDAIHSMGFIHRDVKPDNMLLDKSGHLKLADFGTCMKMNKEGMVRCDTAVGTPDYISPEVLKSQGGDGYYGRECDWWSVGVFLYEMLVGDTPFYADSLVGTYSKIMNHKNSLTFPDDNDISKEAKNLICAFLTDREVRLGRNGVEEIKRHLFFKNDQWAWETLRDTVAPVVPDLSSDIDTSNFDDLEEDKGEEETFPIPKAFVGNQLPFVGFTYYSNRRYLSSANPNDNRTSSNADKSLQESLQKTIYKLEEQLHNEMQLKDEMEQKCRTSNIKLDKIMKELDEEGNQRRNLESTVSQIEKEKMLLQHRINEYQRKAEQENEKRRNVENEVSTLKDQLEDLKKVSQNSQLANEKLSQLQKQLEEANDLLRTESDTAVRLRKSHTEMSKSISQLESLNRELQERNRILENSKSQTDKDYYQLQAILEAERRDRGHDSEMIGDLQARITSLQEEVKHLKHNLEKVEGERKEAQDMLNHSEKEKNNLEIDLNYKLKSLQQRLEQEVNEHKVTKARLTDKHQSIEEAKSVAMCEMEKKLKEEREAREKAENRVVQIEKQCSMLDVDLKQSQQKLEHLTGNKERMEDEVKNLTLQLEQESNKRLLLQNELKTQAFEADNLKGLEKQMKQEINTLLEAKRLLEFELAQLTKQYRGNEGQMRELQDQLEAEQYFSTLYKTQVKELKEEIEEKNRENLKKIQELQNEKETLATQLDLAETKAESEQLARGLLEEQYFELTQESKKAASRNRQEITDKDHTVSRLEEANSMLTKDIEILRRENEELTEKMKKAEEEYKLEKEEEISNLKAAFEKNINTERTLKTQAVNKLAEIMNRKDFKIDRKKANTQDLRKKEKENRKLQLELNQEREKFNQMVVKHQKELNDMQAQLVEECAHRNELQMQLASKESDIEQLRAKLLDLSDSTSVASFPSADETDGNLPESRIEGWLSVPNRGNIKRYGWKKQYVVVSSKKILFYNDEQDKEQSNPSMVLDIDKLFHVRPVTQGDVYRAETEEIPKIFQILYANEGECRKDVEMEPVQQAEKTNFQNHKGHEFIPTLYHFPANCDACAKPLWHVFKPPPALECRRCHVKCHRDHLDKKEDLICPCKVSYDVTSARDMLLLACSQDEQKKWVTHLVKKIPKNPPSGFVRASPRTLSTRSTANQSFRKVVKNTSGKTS

| Structure (SMILES) | Kd (ROCK1 [1]; ROCK1 KD, average of duplicate determinations, Table 5) [nM] | Kd (ROCK1 [1]; ROCK1 Kd, Table 1) [nM] | activity against targets in the total SAFETYscan [2] | ½ Life (mouse hepatocytes) [min] | duration of efficacy on phospho-cofilin ([3]; 10 mg/kg after reperfusion, examined 4 hr or 24 hr) | minimal effective levels ([3]; daily repeat dosing) | minimal effective dose to reverse ROCK activation ([3]; single intraperitoneal application, phospho-cofilin left versus right brain) [mg/kg] | inhibitory activity for ROCK2 relative to parent BA-1049 (R) (ROCK2) | concentration fully abolishing MLC2 diphosphorylation ([4]; 20 μM LPA) [µM] | effect on MLC2 diphosphorylation (pMLC2 T18/S19) ([4]; 1-100 μM 1 hr, 20 μM LPA 5 min) | % Negative Binding, ROCK1 (ROCK1 [5]) [%] |
| --- | --- | --- | --- | --- | --- | --- | --- | --- | --- | --- | --- |
| C[C@@H](N)C1CCN(S(=O)(=O)c2cccc3cnccc23)CC1 [BA-1049 (R)] | 99 | 110 | no activity against any of the targets in the total SAFETYscan™ | 2.2 | at least 24 hr | less than 1 mg/kg | 1 |  |  |  |  |
| C[C@@H](N)C1CCN(S(=O)(=O)c2cccc3c(=O)[nH]ccc23)CC1 [1-hydroxy-BA-1049 (R)] |  |  |  |  |  |  |  | ½ log more potent as an inhibitor of ROCK2 activity than the parent | ≥ 10 | reduce MLC2 diphosphorylation | 0.35 |
